Like-named read-outs stand apart in the source and are kept apart here.
Columns and labels:
[1] = biological target: T1, SORT (Homo sapiens, UniProt Q99523); assay: progranulin (PGRN) peptide/SORT homogenous time-resolved fluorescence (HTRF) assay; assay type: binding; conditions: SORT 1 nM, biotinylated 18-mer PGRN peptide 4 nM, TR-FRET
T1 sequence (Q99523 78-831): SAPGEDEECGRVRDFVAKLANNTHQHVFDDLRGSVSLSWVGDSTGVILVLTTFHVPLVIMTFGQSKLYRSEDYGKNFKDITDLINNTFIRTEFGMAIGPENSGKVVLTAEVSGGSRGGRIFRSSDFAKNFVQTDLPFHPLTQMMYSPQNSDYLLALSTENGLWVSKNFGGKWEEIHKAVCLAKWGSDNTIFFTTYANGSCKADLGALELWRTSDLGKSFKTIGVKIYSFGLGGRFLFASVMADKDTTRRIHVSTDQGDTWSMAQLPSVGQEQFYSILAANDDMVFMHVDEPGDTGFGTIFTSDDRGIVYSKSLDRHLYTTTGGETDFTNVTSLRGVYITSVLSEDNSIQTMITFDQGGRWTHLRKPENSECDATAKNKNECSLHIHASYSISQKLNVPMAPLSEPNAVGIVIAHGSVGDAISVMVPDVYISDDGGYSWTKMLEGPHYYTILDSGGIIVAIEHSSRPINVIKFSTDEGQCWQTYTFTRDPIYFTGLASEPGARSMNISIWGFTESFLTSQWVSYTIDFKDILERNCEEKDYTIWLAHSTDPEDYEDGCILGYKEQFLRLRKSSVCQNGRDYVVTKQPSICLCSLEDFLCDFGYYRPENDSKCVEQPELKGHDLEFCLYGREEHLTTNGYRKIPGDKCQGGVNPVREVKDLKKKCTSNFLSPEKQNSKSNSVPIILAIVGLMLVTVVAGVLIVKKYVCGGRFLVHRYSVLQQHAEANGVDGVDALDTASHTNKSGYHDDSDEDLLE
Description: To determine the IC50s of compounds bound to SORT and thus preventing its interaction with the biotinylated 18-mer PGRN peptide a time-resolved fluorescence resonance energy transfer (TR-FRET) format was used. All test compounds were dissolved in DMSO; the final concentration of DMSO in the reaction buffer was 1%. Compounds were prepared in a ten-point, three-fold serial dilution scheme using an acoustic dispenser. A solution of SORT protein in assay buffer (10 mM HEPES, pH 7.3, 150 mM NaCl, 0.005% Brij-35 and 0.01% BSA, final concentration of SORT 1 nM) was added to each well and pre-incubated with compounds or DMSO vehicle at ambient temperature for 10 min with gentle shaking. Next, biotinylated 18-mer PGRN peptide was added to each well (final concentration 4 nM) and the binding reactions were incubated at ambient temperature for 30 min with gentle shaking. Solutions of SA/Dylight in assay buffer were added to each well, immediately followed by addition of Eu/anti-His in assay buffer. […] Data were analyzed using ABase and a 4-parameter logistic fit based on the Levenberg-Marquardt algorithm.^9

[2] = Poloxamer gelling tests at 20° C. and 37° C.; assay type: physicochemical; conditions: 14% poloxamer gel, compound at 1 mg/mL
Excerpt: In a preferred embodiment, the sortilin antagonists herein described may be administered in a gel formulation, preferably a Poloxamer 407 gel formulation. Said formulation may comprise the following excipients, reactants and solvents; Poloxamer 407, 5% glucose, Sodium dihydrogenophosphate, Di-sodium hydrogenophosphate, acetonitrile, trifluoroacetic acid and de-ionized water. Preferably, the gel formulation is a 14% poloxamer solution in diluted pH 7.4 phosphate buffer (0.013M) in deionized water. […] (body temperature), see Table 1 below. […] Accordingly, the aforementioned gel formulation is an appropriate vehicle solution to administer said compounds.

[3] = biological target: T2, hSortilin (Homo sapiens, UniProt Q99523); assay: Neurotensin SPA assay with [125I]-Neurotensin; assay type: binding
T2 sequence (Q99523 78-831): T1 sequence (Q99523 78-831)
Excerpt: All values reported are average of at least 4 determinations.^8

[4] = biological target: T2, hSortilin; conditions: expected value, compared with the [125I]-Neurotensin SPA result; cited from earlier work

Structure (SMILES)	IC50 [1] [µM]	other results
CC(C)(C)c1cc(C(=O)O)n(Cc2cc(Cl)cc(Cl)c2)n1 [Example 32, 3-tert-butyl-1-[(3,5-dichlorophenyl)methyl]-1H-pyrazole-5-carboxylic acid]	2.1	
CC(C)(C)CC[C@H](NC(=O)c1cc(Cl)c[nH]1)C(=O)O (single isomer, unassigned) [Example 43]	0.09	
CC(C)(C)c1cc(C(=O)O)n(Cc2nnc(-c3ccccc3)o2)n1 [Example 38, 3-tert-butyl-1-[(5-phenyl-1,3,4-oxadiazol-2-yl)methyl]-1H-pyrazole-5-carboxylic acid]	0.49	
CC(C)C[C@H](NC(=O)C(C)(C)Cc1ccc(Cl)cc1)C(=O)O [Example 49, (2S)-2-{2-[(4-chlorophenyl)methyl]-2-methylpropanamido}-4-methylpentanoic acid]	6.8	
CC(OC(C)(C)C)[C@H](NC(=O)c1cc(Cl)cc(Cl)c1)C(=O)O (stereo partly drawn) [Example 61, (2S)-3-(tert-butoxy)-2-[(3,5-dichlorophenyl)formamido]butanoic acid]	> 67	
Cc1cccc(NC(=O)c2ccc(C(F)(F)F)cc2C(=O)O)n1 [Example 8, 2-[(6-methylpyridin-2-yl)carbamoyl]-5-(trifluoromethyl)benzoic acid]		properties of the poloxamer gel formulation after addition of compound [2]: unaltered
CC(C)(C)c1cc(C(=O)O)n(Cc2ccccc2)n1 [Example 31, 1-benzyl-3-tert-butyl-1H-pyrazole-5-carboxylic acid]	2	
CC(C)(C)c1cc(C(=O)O)n(Cc2ccc(Oc3ccccc3)nc2)n1 [Example 34, 3-tert-butyl-1-[(6-phenoxypyridin-3-yl)methyl]-1H-pyrazole-5-carboxylic acid]	2.1	
CC(C)(C)CCc1cc(C(=O)O)n(Cc2ccccc2)n1 [Example 41, 1-benzyl-3-(3,3-dimethylbutyl)-1H-pyrazole-5-carboxylic acid]	> 67	
CC(C)(C)CC[C@H](NC(=O)c1cc(Cl)cc(Cl)c1)C(=O)O (single isomer, unassigned) [Example 42]	0.17	
COc1cccc(C(=O)N[C@@H](CC(C)C)C(=O)O)c1 [Example 48, (2S)-2-[(3-methoxyphenyl)formamido]-4-methylpentanoic acid]	6.8	
CC(C)c1cc(C(=O)O)n(CCc2ccccc2)n1 [Example 40, 1-(2-phenylethyl)-3-(propan-2-yl)-1H-pyrazole-5-carboxylic acid]	> 67	
CC(C)C[C@H](NC(=O)c1cccc(Cl)c1)C(=O)O [Example 47, (2S)-2-[(3-chlorophenyl)formamido]-4-methylpentanoic acid]	4.5	
CC(C)(C)c1cc(C(=O)O)n(-c2ccccc2)n1 [Example 36, 3-tert-butyl-1-phenyl-1H-pyrazole-5-carboxylic acid]	7.6	
CC(C)(C)CC[C@H](NC(=O)c1ccc(Oc2ccccc2)nc1)C(=O)O (racemic) [*Example 44]		IC50 ([3]; [125I]-Neurotensin, read-out: Observed IC50): 0.12 µM; Fold difference between calculated and expected ([3]; observed versus expected IC50): 6; IC50 [4]: 0.02 µM
CC(C)(C)c1cc(C(=O)O)n(CCc2ccccc2)n1 [Example 37, 3-tert-butyl-1-(2-phenylethyl)-1H-pyrazole-5-carboxylic acid]	5.3	
CC(C)(C)Cc1cc(C(=O)O)n(Cc2ccccc2)n1 [Example 39, 1-benzyl-3-(2,2-dimethylpropyl)-1H-pyrazole-5-carboxylic acid]	6.6	
CC(C)(C)OC[C@H](NC(=O)c1cc(Cl)cc(Cl)c1)C(=O)O [Example 60, (2S)-3-(tert-butoxy)-2-[(3,5-dichlorophenyl)formamido]propanoic acid]	1.5	
Cn1nc(C(C)(C)C)cc1C(=O)O [Example 35, 3-tert-butyl-1-methyl-1H-pyrazole-5-carboxylic acid]	8.3	
CC(C)C[C@H](NC(=O)c1cc(Cl)cc(Cl)c1)C(=O)O [Example 46, (2S)-2-[(3,5-dichlorophenyl)formamido]-4-methylpentanoic acid]	2.7	
CC(C)(C)CC[C@H](NC(=O)c1ccc(Oc2ccccc2)nc1)C(=O)O (single isomer, unassigned) [Example 44]	0.02	
CC(C)(C)c1cc(C(=O)O)n(Cc2ccc(-n3cccn3)nc2)n1 [Example 33, 3-tert-butyl-1-{[6-(1H-pyrazol-1-yl)pyridin-3-yl]methyl}-1H-pyrazole-5-carboxylic acid]	3	
CC(C)C[C@H](NC(=O)c1ccc(Cl)c(Cl)c1)C(=O)O [Example 45, (2S)-2-[(3,4-dichlorophenyl)formamido]-4-methylpentanoic acid]	4.3	
CC(C)C[C@H](NC(=O)c1cnn(C)c1)C(=O)O [Example 50, (2S)-4-methyl-2-[(1-methyl-1H-pyrazol-4-yl)formamido]pentanoic acid]	5.3	

Continued, in another order:

IC50 [1] [µM]	Structure (SMILES)	other results
14.4	CC(C)C[C@H](NC(=O)C1CN(Cc2cc(Cl)cc(Cl)c2)CCO1)C(=O)O (stereo partly drawn) [Example 53, (2S)-2-({4-[(3,5-dichlorophenyl)methyl]morpholin-2-yl}formamido)-4-methylpentanoic acid]	
25.3	CC(C)C[C@H](NC(=O)C1CCCC1)C(=O)O [Example 52, (2S)-2-(cyclopentylformamido)-4-methylpentanoic acid]	
18	O=C(N[C@@H](CC12CC(C1)C2)C(=O)O)c1cc(Cl)cc(Cl)c1 [Example 58, (2S)-3-{bicyclo[1.1.1]pentan-1-yl}-2-[(3,5-dichlorophenyl)formamido]propanoic acid]	
0.065	CC(C)(C)C[C@H](NC(=O)c1ccc(Oc2ccccc2)nc1)C(=O)O [Example 64, (2S)-4,4-dimethyl-2-[(6-phenoxypyridin-3-yl)formamido]pentanoic acid]	
0.35	CC(C)(C)C[C@H](NC(=O)c1cc(Cl)cc(Cl)c1)C(=O)O [Example 57, (2S)-2-[(3,5-dichlorophenyl)formamido]-4,4-dimethylpentanoic acid]	
> 67	O=C(N[C@@H](Cc1ccccc1)C(=O)O)c1cc(Cl)cc(Cl)c1 [Example 59, (2S)-2-[(3,5-dichlorophenyl)formamido]-3-phenylpropanoic acid]	
6.3	CC(C)C[C@H](NC(=O)c1cnc2ccccc2n1)C(=O)O [Example 51, (2S)-4-methyl-2-[(quinoxalin-2-yl)formamido]pentanoic acid]	
17.1	C=C(C)C[C@H](NC(=O)c1cc(Cl)cc(Cl)c1)C(=O)O [Example 54, (2S)-2-[(3,5-dichlorophenyl)formamido]-4-methylpent-4-enoic acid]	
10.8	CC(C)C[C@H](NC(c1cc(Cl)cc(Cl)c1)C(F)(F)F)C(=O)O (stereo partly drawn) [Example 63, (2S)-2-{[1-(3,5-dichlorophenyl)-2,2,2-trifluoroethyl]amino}-4-methylpentanoic acid]	
2.3	O=C(N[C@@H](CC1CCCCC1)C(=O)O)c1cc(Cl)cc(Cl)c1 [Example 56, (2S)-3-cyclohexyl-2-[(3,5-dichlorophenyl)formamido]propanoic acid]	
10.7	O=C(N[C@@H](CC1CC1)C(=O)O)c1cc(Cl)cc(Cl)c1 [Example 55, (2S)-3-cyclopropyl-2-[(3,5-dichlorophenyl)formamido]propanoic acid]	
6.9	CC(C)(C)CC(NC(=O)c1cc(Cl)cc(Cl)c1)c1nn[nH]n1 (centres unmarked) [Example 62, 3,5-dichloro-N-[3,3-dimethyl-1-(2H-1,2,3,4-tetrazol-5-yl)butyl]benzamide]	

— patent US20230374143A1, “A SORTILIN ANTAGONIST FOR USE IN THE PREVENTION OR TREATMENT OF HEARING LOSS” (Insusense ApS, priority 2020, published 2023)
